Patent US20240116985A1, “STAPLED PEPTIDES AND METHODS THEREOF” (priority 2020, published 2024)
Values after ≈ are worked out from the molar mass of the structure shown. Like-named read-outs stand apart in the source and are kept apart here.

Columns and labels:
[1] = target: T1, full-length beta-Catenin (Uniprot ID P35222) (Homo sapiens, UniProt P35222); test: Fluorescence polarization IC50 (beta-catenin / 5FAM-TCF4 10-53 competition); type: binding
T1 construct: 10 nM full-length beta-Catenin (Uniprot ID P35222)
T1 sequence (P35222 1-781): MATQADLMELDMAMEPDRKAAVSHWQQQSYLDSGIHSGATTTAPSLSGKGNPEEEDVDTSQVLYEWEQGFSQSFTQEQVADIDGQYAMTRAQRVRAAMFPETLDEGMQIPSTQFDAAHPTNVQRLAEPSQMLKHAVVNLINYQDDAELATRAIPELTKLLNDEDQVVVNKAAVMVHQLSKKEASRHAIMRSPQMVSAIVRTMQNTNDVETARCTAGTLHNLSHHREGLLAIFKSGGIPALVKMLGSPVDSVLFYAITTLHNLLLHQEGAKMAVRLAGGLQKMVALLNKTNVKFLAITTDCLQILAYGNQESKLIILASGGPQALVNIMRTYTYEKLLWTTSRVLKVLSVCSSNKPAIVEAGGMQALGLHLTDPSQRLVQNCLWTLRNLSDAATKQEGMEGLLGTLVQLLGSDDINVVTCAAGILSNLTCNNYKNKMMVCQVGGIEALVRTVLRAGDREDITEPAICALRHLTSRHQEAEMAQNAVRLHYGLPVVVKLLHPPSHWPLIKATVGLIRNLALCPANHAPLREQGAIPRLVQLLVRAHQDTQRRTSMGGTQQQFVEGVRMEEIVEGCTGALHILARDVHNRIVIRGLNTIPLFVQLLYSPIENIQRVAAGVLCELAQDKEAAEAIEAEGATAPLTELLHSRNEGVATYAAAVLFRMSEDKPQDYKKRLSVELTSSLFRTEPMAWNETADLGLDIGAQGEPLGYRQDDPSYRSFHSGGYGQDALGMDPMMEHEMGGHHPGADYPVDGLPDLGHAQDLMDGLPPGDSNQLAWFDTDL

CHI Log D procedure = type: physicochemical; settings: for chromatographic logD: pH 7.4, CHI Log D; for CHI Log D: pH 7.4
Solubility in PBS = type: physicochemical
In short: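 The PBS solution was ultracentrifuged and the supernatant analyzed by HPLC. Its peak area was divided by that of a 50 μM peptide DMSO reference injection and multiplied by 50 uM to give solubility.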

[2] = target: T2, beta-catenin/TCF4 engagement (Homo sapiens, UniProt P35222); test: Nano-BRET target engagement assay (B-cat-Halo & TCF4-Luc in HEK293 cells); type: cell-based
T2 construct: expressed in transfected cells; host or cells: HEK293
T2 sequence (P35222 1-781): T1 sequence (P35222 1-781)

[3] = absolute IC50; read-out: NanoBRET Abs IC50
[4] = fluorescence polarization, beta-catenin, read-out: FP EC50

| SMILES | IC50 ([1]; read-out: beta-Catenin FP IC50) | chromatographic logD (CHI Log D procedure) | Solubility (Solubility in PBS; Solubility (uM)) | IC50 [2, 3] | Solubility (Solubility in PBS) | CHI Log D (CHI Log D procedure) | IC50 [1, 4] | IC50 ([2]; read-out: NanoBRET Abs IC50) | IC50 ([1]; read-out: FP EC50, fluorescence polarization, beta-catenin) | IC50 ([2]; read-out: NanoBRET Abs IC50; absolute IC50) |
| --- | --- | --- | --- | --- | --- | --- | --- | --- | --- | --- |
| C[C@@H]1NC(=O)[C@H](C)NC(=O)[C@H](CC(=O)O)NC(=O)[C@H](CC(=O)O)NC(=O)C2(CCCC=CCCCCCC[C@@](C)(C(=O)N[C@@H](Cc3ccsc3)C(=O)N[C@@H](Cc3csc4ccccc34)C(=O)N[C@@H](CCC(N)=O)C(N)=O)NC(=O)[C@H](CC(N)=O)NC(=O)[C@H](Cc3ccccc3)NC1=O)CCCC=CC[C@]1(CCCN1C(=O)CN=[N+]=[N-])C(=O)N[C@@H](CC(=O)O)C(=O)N[C@@H](CC(C)(C)C)C(=O)N2 (stereo partly drawn) [I-1053, AzAc-PL3-Asp-Npg-B5-Asp-Asp-Ala-Ala-Phe-Asn-S8-3Thi-BztA-Gln-NH2] |  |  |  |  | 48 µM (≈ 92 µg/mL) | 2.381 |  |  | 11 nM | > 20000 nM |
| CC(=O)N1CCC[C@]12CC=CCCCC1(CCCC=CCCCOC(=O)N3CC[C@@](C(=O)N[C@@H](Cc4ccccc4Cl)C(=O)N[C@@H](Cc4csc5ccccc45)C(=O)N[C@@H](CCC(N)=O)C(=O)NCCCCCCN)(C3)NC(=O)[C@H]([C@@H](C)O)NC(=O)[C@H](Cc3ccccc3)NC(=O)[C@H](C)NC(=O)[C@H](C)NC(=O)[C@H](CN(CC(=O)O)CC(F)(F)F)NC(=O)[C@H](CC(=O)O)NC1=O)NC(=O)[C@H](CC(C)(C)C)NC(=O)[C@H](CC(=O)O)NC2=O (stereo partly drawn) [I-1061, Ac-PL3-Asp-Npg-B5-Asp-TfeGA-Ala-Ala-Phe-Thr-PyrS2-2C1F-BztA-Gln-6AmHex] | 6 nM | 2.56 |  | 10300 nM | 10 µM (≈ 21.4 µg/mL) |  |  |  |  |  |
| CC(=O)N1CCC[C@]12CC=CCCCC1(CCCC=CCCCOC(=O)N3CC[C@@](C(=O)N[C@@H](Cc4ccccc4)C(=O)N[C@@H](Cc4csc5ccccc45)C(=O)N[C@@H](CCC(N)=O)C(N)=O)(C3)NC(=O)[C@H](CC(C)C)NC(=O)[C@H](Cc3ccccc3)NC(=O)[C@H](C)NC(=O)[C@H](C)NC(=O)[C@H](CC(=O)O)NC(=O)[C@H](CC(=O)O)NC1=O)NC(=O)[C@H](CC(C)(C)C)NC(=O)[C@H](CC(=O)O)NC2=O (stereo partly drawn) [I-1072, Ac-PL3-Asp-Npg-B5-Asp-Asp-Ala-Ala-Phe-Leu-PyrS2-Phe-BztA-Gln-NH2] | 10 nM | 1.39 | 35 µM (≈ 66.9 µg/mL) |  |  |  | 723 nM | 10500 nM |  |  |
| CC(=O)N1CCC[C@]12CC=CCCCC1(CCCC=CCCCCCC[C@@](C)(C(=O)N[C@@H](Cc3ccccc3Cl)C(=O)N[C@@H](Cc3csc4ccccc34)C(=O)N[C@@H](CCC(N)=O)C(N)=O)NC(=O)[C@H]([C@@H](C)O)NC(=O)[C@H](Cc3ccccc3)NC(=O)[C@H](C)NC(=O)[C@H](C)NC(=O)[C@H](CCC(=O)O)NC(=O)[C@H](CC(=O)O)NC1=O)NC(=O)[C@H](CC(C)(C)C)NC(=O)[C@H](CC(=O)O)NC2=O (stereo partly drawn) [I-1088, Ac-PL3-Asp-Npg-B5-Asp-Glu-Ala-Ala-Phe-Thr-S8-2ClF-BztA-Gln-NH2] | 22 nM |  |  |  | 44 µM (≈ 83.8 µg/mL) | 2.8 | 22 nM | 6300 nM |  |  |
| CC(=O)N1CCC[C@]12CC=CCCCC1(CCCC=CCCCCCC[C@@](C)(C(=O)N[C@@H](Cc3ccccc3Cl)C(=O)N[C@@H](Cc3csc4ccccc34)C(=O)N[C@H](C(N)=O)[C@@H](C)O)NC(=O)[C@H]([C@@H](C)O)NC(=O)[C@H](Cc3ccccc3)NC(=O)[C@H](C)NC(=O)[C@H](C)NC(=O)[C@H](CC(=O)O)NC(=O)[C@H](CC(=O)O)NC1=O)NC(=O)[C@H](CC(C)(C)C)NC(=O)[C@H](CC(=O)O)NC2=O (stereo partly drawn) [I-1090, Ac-PL3-Asp-Npg-B5-Asp-Asp-Ala-Ala-Phe-Thr-S8-2C1F-BztA-Thr-NH2] | 18 nM | 2.98 | 39 µM (≈ 72.7 µg/mL) |  |  |  |  | 6100 nM |  |  |

Continued, in another order:

| IC50 ([1]; read-out: beta-Catenin FP IC50) | chromatographic logD (CHI Log D procedure) | Solubility (Solubility in PBS; Solubility (uM)) | IC50 [2, 3] | Solubility (Solubility in PBS) | CHI Log D (CHI Log D procedure) | IC50 [1, 4] | IC50 ([2]; read-out: NanoBRET Abs IC50) | SMILES | IC50 ([1]; read-out: FP EC50, fluorescence polarization, beta-catenin) | IC50 ([2]; read-out: NanoBRET Abs IC50; absolute IC50) |
| --- | --- | --- | --- | --- | --- | --- | --- | --- | --- | --- |
| 5 nM | 2.4 | 37 µM (≈ 71.5 µg/mL) | 20500 nM |  |  |  |  | CC(=O)N1CCC[C@]12CC=CCCCC1(CCCC=CCCCOC(=O)N3CC[C@@](C(=O)N[C@@H](Cc4ccccc4Cl)C(=O)N[C@@H](Cc4csc5ccccc45)C(=O)N[C@@H](CO)C(N)=O)(C3)NC(=O)[C@H](CC(N)=O)NC(=O)[C@H](Cc3ccccc3)NC(=O)[C@H](C)NC(=O)[C@H](C)NC(=O)[C@H](CC(=O)O)NC(=O)[C@H](CC(=O)O)NC1=O)NC(=O)[C@H](CC1CCCCC1)NC(=O)[C@H](CC(=O)O)NC2=O (stereo partly drawn) [I-1046, Ac-PL3-Asp-Cha-B5-Asp-Asp-Ala-Ala-Phe-Asn-PyrS2-2C1F-BztA-Ser-NH2] |  |  |
| 5 nM | 2.19 |  | 28400 nM | 10 µM (≈ 19.3 µg/mL) |  |  |  | CC(=O)N1CCC[C@]12CC=CCCCC1(CCCC=CCCCOC(=O)N3CC[C@@](C(=O)N[C@@H](Cc4ccccc4Cl)C(=O)N[C@@H](Cc4csc5ccccc45)C(=O)N[C@@H](CO)C(N)=O)(C3)NC(=O)[C@H](CC(N)=O)NC(=O)[C@H](Cc3ccccc3)NC(=O)[C@H](C)NC(=O)[C@H](C)NC(=O)[C@H](CC(=O)O)NC(=O)[C@H](CC(=O)O)NC1=O)NC(=O)[C@H](Cc1ccccc1)NC(=O)[C@H](CC(=O)O)NC2=O (stereo partly drawn) [I-1047, Ac-PL3-Asp-Phe-B5-Asp-Asp-Ala-Ala-Phe-Asn-PyrS2-2C1F-BztA-Ser-NH2] |  |  |
| 12 nM |  |  |  | 43 µM (≈ 81.9 µg/mL) | 2.826 | 12 nM | 8900 nM | CC(=O)N1CCC[C@]12CC=CCCCC1(CCCC=CCCCCCC[C@@](C)(C(=O)N[C@@H](Cc3ccccc3Cl)C(=O)N[C@@H](Cc3csc4ccccc34)C(=O)N[C@@H](CCC(N)=O)C(N)=O)NC(=O)[C@H]([C@@H](C)O)NC(=O)[C@H](Cc3ccccc3)NC(=O)[C@H](C)NC(=O)[C@H](C)NC(=O)[C@H](CCC(=O)O)NC(=O)[C@H](CC(=O)O)NC1=O)NC(=O)[C@H](CC(C)(C)C)NC(=O)[C@H](CC(=O)O)NC2=O (stereo partly drawn) [I-1089, Ac-PL3-Asp-Npg-B5-Asp-Glu-Ala-Ala-Phe-Thr-S8-2C1F-BztA-Gln-NH2] |  |  |
| 27 nM | 3.04 | 33 µM (≈ 62 µg/mL) |  |  |  |  | 11400 nM | CC(=O)N1CCC[C@]12CC=CCCCC1(CCCC=CCCCCCC[C@@](C)(C(=O)N[C@@H](Cc3ccccc3Cl)C(=O)N[C@@H](Cc3csc4ccccc34)C(=O)N[C@H](C(N)=O)[C@@H](C)O)NC(=O)[C@H]([C@@H](C)O)NC(=O)[C@H](Cc3ccccc3)NC(=O)[C@H](C)NC(=O)[C@H](C)NC(=O)[C@H](CCC(=O)O)NC(=O)[C@H](CC(=O)O)NC1=O)NC(=O)[C@H](CC(C)(C)C)NC(=O)[C@H](CC(=O)O)NC2=O (stereo partly drawn) [I-1091, Ac-PL3-Asp-Npg-B5-Asp-Glu-Ala-Ala-Phe-Thr-S8-2C1F-BztA-Thr-NH2] |  |  |
| 26 nM | 3.17 | 28 µM (≈ 52.2 µg/mL) |  |  |  |  | 7700 nM | CC(=O)N1CCC[C@]12CC=CCCCC1(CCCC=CCCCCCC[C@@](C)(C(=O)N[C@@H](Cc3ccccc3Cl)C(=O)N[C@@H](Cc3csc4ccccc34)C(=O)N[C@@H](C(N)=O)[C@H](C)O)NC(=O)[C@H]([C@@H](C)O)NC(=O)[C@H](Cc3ccccc3)NC(=O)[C@H](C)NC(=O)[C@H](C)NC(=O)[C@H](CC(=O)O)NC(=O)[C@H](CC(=O)O)NC1=O)NC(=O)[C@H](CC(C)(C)C)NC(=O)[C@H](CC(=O)O)NC2=O (stereo partly drawn) [I-1092, Ac-PL3-Asp-Npg-B5-Asp-Asp-Ala-Ala-Phe-Thr-S8-2C1F-BztA-dThr-NH2] |  |  |
